# Read-outs that look alike come from different tables or passages of the source.
# Key:
# Assay in all cases: biochemical
# Parameters in all cases: KINOMEscan active site-directed competition binding assay (DiscoveRx), 456 kinases, per cent of control at 300 nM
# Conditions in all cases: read-out: Percent of Control (%)
# ABL1-phosphorylated = target: T1, ABL1-phosphorylated (Homo sapiens, UniProt P00519)
# T1 construct: phosphorylated
# Outline: (§1)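 Single-concentration selectivity screen: compound 300 nmol/L; 456-kinase panel; active-site-directed competition binding read-out.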
# ALK = ALK (Homo sapiens, UniProt Q9UM73)
# Outline: as §1
# ASK2 = target: T2, ASK2 (Homo sapiens, UniProt O95382)
# T2 construct: gene MAP3K6
# Outline: as §1
# BRK = target: T3, BRK (Homo sapiens, UniProt Q13882)
# T3 construct: gene PTK6
# Outline: as §1
# CHEK1 = CHEK1 (Homo sapiens, UniProt O14757)
# Outline: as §1
# CLK2 = CLK2 (Homo sapiens, UniProt P49760)
# Outline: as §1
# DDR1 = DDR1 (Homo sapiens, UniProt Q08345)
# Outline: as §1
# EGFR(L858R) = EGFR(L858R) (Homo sapiens, UniProt P00533, L858R)
# Outline: as §1
# EPHA4 = EPHA4 (Homo sapiens, UniProt P54764)
# Outline: as §1
# FLT3-autoinhibited = FLT3-autoinhibited (Homo sapiens, UniProt P36888)
# Outline: as §1
# FYN = FYN (Homo sapiens, UniProt P06241)
# Outline: as §1
# LIMK2 = LIMK2 (Homo sapiens, UniProt P53671)
# Outline: as §1
# MAP4K2 = MAP4K2 (Homo sapiens, UniProt Q12851)
# Outline: as §1
# NDR1 = target: T4, NDR1 (Homo sapiens, UniProt Q15208)
# T4 construct: gene STK38
# Outline: as §1
# PAK1 = PAK1 (Homo sapiens, UniProt Q13153)
# Outline: as §1
# PCTK1 = target: T5, PCTK1 (Homo sapiens, UniProt Q00536)
# T5 construct: gene CDK16
# Outline: as §1
# PRKCH = PRKCH (Homo sapiens, UniProt P24723)
# Outline: as §1
# RIOK1 = RIOK1 (Homo sapiens, UniProt Q9BRS2)
# Outline: as §1
# SGK = target: T6, SGK (Homo sapiens, UniProt O00141)
# T6 construct: gene SGK1
# Outline: as §1
# STK35 = STK35 (Homo sapiens, UniProt Q8TDR2)
# Outline: as §1
# TNIK = TNIK (Homo sapiens, UniProt Q9UKE5)
# Outline: as §1
# ZAK = target: T7, ZAK (Homo sapiens, UniProt Q9NYL2)
# T7 construct: gene MAP3K20
# Outline: as §1
# T4 sequence (Q15208 whole entry): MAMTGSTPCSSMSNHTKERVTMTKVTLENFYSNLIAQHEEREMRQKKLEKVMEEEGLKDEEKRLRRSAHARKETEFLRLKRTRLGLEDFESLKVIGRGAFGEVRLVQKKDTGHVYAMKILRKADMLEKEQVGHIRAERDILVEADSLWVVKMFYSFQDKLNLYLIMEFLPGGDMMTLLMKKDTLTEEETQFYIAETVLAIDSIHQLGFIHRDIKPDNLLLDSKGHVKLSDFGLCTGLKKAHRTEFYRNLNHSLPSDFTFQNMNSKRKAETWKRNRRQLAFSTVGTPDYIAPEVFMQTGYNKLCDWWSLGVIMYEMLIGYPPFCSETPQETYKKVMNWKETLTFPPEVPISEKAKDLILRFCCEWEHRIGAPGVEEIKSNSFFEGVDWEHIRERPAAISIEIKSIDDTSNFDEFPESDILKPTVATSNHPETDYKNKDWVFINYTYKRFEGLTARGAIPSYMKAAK
# CHEK1, sequence (O14757 whole entry): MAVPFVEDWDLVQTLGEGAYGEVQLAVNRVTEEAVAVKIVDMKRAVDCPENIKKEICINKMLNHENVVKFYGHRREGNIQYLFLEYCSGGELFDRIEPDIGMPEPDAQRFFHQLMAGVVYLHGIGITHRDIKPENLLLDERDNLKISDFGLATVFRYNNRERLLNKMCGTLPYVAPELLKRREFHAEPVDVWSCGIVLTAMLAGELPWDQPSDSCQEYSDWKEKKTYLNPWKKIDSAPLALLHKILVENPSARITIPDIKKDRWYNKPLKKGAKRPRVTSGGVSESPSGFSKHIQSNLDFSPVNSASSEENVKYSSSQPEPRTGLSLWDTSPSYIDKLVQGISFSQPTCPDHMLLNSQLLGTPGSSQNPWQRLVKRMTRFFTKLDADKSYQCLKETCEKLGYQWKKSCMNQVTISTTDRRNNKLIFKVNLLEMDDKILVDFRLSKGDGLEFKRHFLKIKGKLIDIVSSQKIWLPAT
# FYN, sequence (P06241 whole entry): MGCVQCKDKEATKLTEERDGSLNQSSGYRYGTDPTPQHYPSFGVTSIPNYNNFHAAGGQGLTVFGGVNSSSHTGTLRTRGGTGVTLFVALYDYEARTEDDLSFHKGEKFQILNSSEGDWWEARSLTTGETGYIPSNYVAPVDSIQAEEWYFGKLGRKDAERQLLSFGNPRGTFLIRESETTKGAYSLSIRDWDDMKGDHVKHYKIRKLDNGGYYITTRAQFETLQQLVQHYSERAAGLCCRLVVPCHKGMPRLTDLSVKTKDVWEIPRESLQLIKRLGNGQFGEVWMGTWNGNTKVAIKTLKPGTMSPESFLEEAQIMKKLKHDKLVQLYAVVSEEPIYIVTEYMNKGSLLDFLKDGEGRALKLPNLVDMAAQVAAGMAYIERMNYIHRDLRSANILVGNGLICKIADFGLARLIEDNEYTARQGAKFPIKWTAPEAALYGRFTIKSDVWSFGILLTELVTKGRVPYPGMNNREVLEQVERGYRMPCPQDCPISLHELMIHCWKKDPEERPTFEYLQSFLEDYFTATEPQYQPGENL
# T3 sequence (Q13882 whole entry): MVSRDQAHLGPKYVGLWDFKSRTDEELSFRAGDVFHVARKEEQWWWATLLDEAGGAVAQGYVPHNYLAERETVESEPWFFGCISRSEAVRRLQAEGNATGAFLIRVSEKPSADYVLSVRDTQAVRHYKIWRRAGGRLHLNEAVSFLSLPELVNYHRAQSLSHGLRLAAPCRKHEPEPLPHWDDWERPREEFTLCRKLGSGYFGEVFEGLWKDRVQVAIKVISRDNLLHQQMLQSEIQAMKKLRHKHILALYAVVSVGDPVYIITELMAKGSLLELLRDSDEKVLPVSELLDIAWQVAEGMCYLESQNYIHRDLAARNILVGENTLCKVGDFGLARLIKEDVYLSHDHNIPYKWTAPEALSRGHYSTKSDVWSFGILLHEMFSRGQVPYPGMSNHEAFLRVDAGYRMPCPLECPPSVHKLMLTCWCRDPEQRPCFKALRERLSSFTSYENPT
# PAK1, sequence (Q13153 whole entry): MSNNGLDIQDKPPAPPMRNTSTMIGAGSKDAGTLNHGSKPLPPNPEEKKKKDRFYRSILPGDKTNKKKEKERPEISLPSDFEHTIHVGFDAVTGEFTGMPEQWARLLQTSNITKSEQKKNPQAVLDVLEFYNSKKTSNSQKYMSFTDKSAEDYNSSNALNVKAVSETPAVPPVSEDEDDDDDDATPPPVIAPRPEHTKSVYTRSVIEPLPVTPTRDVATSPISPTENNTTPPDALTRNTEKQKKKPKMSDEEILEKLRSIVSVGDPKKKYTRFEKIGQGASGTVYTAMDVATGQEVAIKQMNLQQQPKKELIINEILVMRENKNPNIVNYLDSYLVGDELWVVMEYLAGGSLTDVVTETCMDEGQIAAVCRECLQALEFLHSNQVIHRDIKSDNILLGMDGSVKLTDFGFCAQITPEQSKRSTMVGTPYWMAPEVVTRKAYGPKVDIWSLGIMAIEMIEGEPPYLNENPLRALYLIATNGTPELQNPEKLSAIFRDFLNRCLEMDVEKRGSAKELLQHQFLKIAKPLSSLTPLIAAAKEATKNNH
# T6 sequence (O00141 whole entry): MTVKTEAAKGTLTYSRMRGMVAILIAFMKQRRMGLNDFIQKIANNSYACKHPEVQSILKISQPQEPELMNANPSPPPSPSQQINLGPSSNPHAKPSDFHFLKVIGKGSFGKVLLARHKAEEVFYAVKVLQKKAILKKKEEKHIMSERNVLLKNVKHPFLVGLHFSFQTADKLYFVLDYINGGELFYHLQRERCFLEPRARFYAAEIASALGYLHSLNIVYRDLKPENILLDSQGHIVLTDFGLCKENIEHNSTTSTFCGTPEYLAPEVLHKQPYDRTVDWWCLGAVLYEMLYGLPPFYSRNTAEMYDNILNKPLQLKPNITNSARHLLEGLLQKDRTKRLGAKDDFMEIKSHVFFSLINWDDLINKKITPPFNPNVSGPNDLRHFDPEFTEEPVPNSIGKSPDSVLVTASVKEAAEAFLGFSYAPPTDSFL
# T5 sequence (Q00536 whole entry): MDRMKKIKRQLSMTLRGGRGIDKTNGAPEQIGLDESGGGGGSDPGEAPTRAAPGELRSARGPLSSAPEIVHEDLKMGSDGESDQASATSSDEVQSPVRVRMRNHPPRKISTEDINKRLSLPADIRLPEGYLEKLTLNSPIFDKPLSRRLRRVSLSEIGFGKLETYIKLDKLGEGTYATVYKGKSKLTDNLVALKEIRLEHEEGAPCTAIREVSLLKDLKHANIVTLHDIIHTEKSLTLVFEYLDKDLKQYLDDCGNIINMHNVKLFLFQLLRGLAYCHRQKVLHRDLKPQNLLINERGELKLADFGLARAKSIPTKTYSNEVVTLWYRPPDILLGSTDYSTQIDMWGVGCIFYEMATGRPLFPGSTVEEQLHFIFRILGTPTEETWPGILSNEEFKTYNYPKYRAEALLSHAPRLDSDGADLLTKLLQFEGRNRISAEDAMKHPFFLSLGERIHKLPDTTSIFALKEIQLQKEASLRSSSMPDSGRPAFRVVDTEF
# LIMK2, sequence (P53671 whole entry): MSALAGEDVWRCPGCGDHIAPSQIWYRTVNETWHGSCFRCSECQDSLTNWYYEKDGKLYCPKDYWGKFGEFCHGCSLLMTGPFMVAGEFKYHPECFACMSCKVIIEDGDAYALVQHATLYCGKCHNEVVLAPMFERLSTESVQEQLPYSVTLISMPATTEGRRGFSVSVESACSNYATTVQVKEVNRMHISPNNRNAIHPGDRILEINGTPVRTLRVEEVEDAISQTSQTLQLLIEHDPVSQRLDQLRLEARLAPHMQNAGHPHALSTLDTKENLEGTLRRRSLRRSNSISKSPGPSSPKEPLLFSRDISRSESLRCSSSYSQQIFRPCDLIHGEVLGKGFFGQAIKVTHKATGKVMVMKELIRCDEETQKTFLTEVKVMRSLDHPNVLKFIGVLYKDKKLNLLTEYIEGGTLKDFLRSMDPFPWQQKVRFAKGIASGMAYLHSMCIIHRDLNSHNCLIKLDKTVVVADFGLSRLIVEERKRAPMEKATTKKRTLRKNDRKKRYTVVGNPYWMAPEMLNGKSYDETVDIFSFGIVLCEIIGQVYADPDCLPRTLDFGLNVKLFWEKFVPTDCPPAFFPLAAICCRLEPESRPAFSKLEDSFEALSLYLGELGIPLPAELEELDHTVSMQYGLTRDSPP
# STK35, sequence (Q8TDR2 whole entry): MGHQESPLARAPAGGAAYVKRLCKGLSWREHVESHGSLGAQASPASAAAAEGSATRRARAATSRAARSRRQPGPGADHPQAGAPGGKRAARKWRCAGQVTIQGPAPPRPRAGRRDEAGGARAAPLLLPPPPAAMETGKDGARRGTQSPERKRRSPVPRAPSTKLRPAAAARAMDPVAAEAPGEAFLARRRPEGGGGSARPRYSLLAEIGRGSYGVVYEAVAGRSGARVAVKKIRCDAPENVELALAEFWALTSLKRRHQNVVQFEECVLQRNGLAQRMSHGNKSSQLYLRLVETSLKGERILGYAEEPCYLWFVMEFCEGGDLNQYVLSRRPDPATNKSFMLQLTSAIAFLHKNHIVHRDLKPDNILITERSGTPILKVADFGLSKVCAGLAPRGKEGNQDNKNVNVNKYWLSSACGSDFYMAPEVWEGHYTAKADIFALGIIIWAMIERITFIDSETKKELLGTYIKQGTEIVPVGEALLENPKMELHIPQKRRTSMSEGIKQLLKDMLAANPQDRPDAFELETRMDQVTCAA
smiles,measurement,setting,value
"O=C(/C=C/c1cnccc1-c1ccc(F)cc1)Nc1ccc(CCc2nnco2)cc1 [T-418, (2E)-3-(4-(4-fluorophenyl)pyridin-3-yl)-N-(4-(2-(1,3,4-oxadiazol-2-yl)ethyl)phenyl)acrylamide]",remaining binding at 0.3 µM,ABL1-phosphorylated; sheet T-418,89%
same,remaining binding at 0.3 µM,ALK; sheet T-418,81%
same,remaining binding at 0.3 µM,ASK2; sheet T-418,94%
same,remaining binding at 0.3 µM,BRK; sheet T-418,87%
same,remaining binding at 0.3 µM,CHEK1; sheet T-418,100%
same,remaining binding at 0.3 µM,CLK2; sheet T-418,88%
same,remaining binding at 0.3 µM,DDR1; sheet T-418,100%
same,remaining binding at 0.3 µM,EGFR(L858R); sheet T-418,66%
same,remaining binding at 0.3 µM,EPHA4; sheet T-418,100%
same,remaining binding at 0.3 µM,FLT3-autoinhibited; sheet T-418,89%
same,remaining binding at 0.3 µM,FYN; sheet T-418,100%
same,remaining binding at 0.3 µM,LIMK2; sheet T-418,74%
same,remaining binding at 0.3 µM,MAP4K2; sheet T-418,100%
same,remaining binding at 0.3 µM,NDR1; sheet T-418,46%
same,remaining binding at 0.3 µM,PAK1; sheet T-418,76%
same,remaining binding at 0.3 µM,PCTK1; sheet T-418,98%
same,remaining binding at 0.3 µM,PRKCH; sheet T-418,88%
same,remaining binding at 0.3 µM,RIOK1; sheet T-418,97%
same,remaining binding at 0.3 µM,SGK; sheet T-418,88%
same,remaining binding at 0.3 µM,STK35; sheet T-418,98%
same,remaining binding at 0.3 µM,TNIK; sheet T-418,100%
same,remaining binding at 0.3 µM,ZAK; sheet T-418,73%
"Cc1ncccc1Oc1sc(C(N)=O)c2c1-c1c(cnn1C)CC2 [T-474, 1-methyl-8-((2-methylpyridin-3-yl)oxy)-4,5-dihydro-1H-thieno[3,4-g]indazole-6-carboxamide]",remaining binding at 0.3 µM,ABL1-phosphorylated,100%
same,remaining binding at 0.3 µM,ALK,98%
same,remaining binding at 0.3 µM,ASK2,100%
same,remaining binding at 0.3 µM,BRK,100%
same,remaining binding at 0.3 µM,CHEK1,100%
same,remaining binding at 0.3 µM,CLK2,46%
same,remaining binding at 0.3 µM,DDR1,100%
same,remaining binding at 0.3 µM,EGFR(L858R),71%
same,remaining binding at 0.3 µM,EPHA4,100%
same,remaining binding at 0.3 µM,FLT3-autoinhibited,78%
same,remaining binding at 0.3 µM,FYN,100%
same,remaining binding at 0.3 µM,LIMK2,79%
same,remaining binding at 0.3 µM,MAP4K2,100%
same,remaining binding at 0.3 µM,NDR1,39%
same,remaining binding at 0.3 µM,PAK1,94%
same,remaining binding at 0.3 µM,PCTK1,100%
same,remaining binding at 0.3 µM,PRKCH,100%
same,remaining binding at 0.3 µM,RIOK1,98%
same,remaining binding at 0.3 µM,SGK,100%
same,remaining binding at 0.3 µM,STK35,100%
same,remaining binding at 0.3 µM,TNIK,100%
same,remaining binding at 0.3 µM,ZAK,74%

# Source: paper PMC5862592, “CDK8/19 inhibition induces premature G1/S transition and ATR-dependent cell death in prostate cancer cells” (Oncotarget, 2018)
